Results reported in patent publication US7052705B2, “Anti-angiogenic peptides” (Regeneron Pharmaceuticals, Inc., priority 2001, dated 2006).
“And” between values parts separate entries of the source, which are not always exact repeats. Equal entries are not always repeated. Where two headings read alike, the source gives them in different places. Ends that are not written are not given here.

How the values were obtained:
[1] = system: T1, VEGFR-2/NP-1; format: binding, human
T1 construct: In the COS-1 cells overexpressing the full-length VEGFR-2; the NP-1 cDNA used for these experiments would only produce the full-length receptor; expressed in transfected cells; host or cells: COS-1
Method: (§1) When co-expressing VEGFR-2 and NP-1, 5 μg of VEGFR-2 cDNA and 2 μg of NP-1 cDNA are used. When the receptors are expressed in isolation, for VEGFR-2, 5 μg of VEGFR-2 cDNA and 2 μg of mock vector cDNA are used.
(§2) After generation of the liposome/DNA solution, the cells are rinsed one time with 5 ml Optimem I, then replaced with another 5 ml of Optimem I containing the liposome/DNA solution. The cells are incubated for two to four hours at 37° C., 5% CO2, then 5 ml of COS-1 cell growth medium is applied and the transfection is allowed to proceed overnight. The following day, cells are trypsinized (0.2% trypsin, 1 mM EDTA, Gibco-BRL), and cells containing common transfectants are pooled. […] The cells are then used for corresponding VEGFR-2/NP-1 complex formation and peptide blocking studies.
(§3) Cells are plated the day before experimentation at 200,000 cells per well in twelve well tissue culture plates (VWR) in 1 ml of growth medium specific for each cell type. On the day of experimentation, the cells were pre-equilibrated at 4° C. for 30 to 60 minutes in binding buffer (0.2% BSA, Sigma; 25 mM Hepes, Gibco; MEM, Gibco). […] The binding reaction is allowed to reach equilibrium for four hours at 4° C. with gentle agitation.
(§4) Unbound ligand is then removed by quickly washing three times with 5 ml ice cold BSA-free binding buffer (MEM, Gibco, 25 mM Hepes, Gibco). Cells are lysed by the addition of 250 μl of RIPS Buffer (previously described), and the lysed cells are transferred to 12×75 mm test tubes and counted using a gamma counter. Generation of competition curves and IC50 values are performed using the Prism software package (Graphpad Software Inc., San Diego, Calif.).

[2] = biological target: T2, NP-1 (Homo sapiens, UniProt O14786); format: binding; design: the NP-1 cDNA used for these experiments would only produce the full-length receptor; expressed in transfected cells; host or cells: COS-1
T2 sequence (O14786 22-923): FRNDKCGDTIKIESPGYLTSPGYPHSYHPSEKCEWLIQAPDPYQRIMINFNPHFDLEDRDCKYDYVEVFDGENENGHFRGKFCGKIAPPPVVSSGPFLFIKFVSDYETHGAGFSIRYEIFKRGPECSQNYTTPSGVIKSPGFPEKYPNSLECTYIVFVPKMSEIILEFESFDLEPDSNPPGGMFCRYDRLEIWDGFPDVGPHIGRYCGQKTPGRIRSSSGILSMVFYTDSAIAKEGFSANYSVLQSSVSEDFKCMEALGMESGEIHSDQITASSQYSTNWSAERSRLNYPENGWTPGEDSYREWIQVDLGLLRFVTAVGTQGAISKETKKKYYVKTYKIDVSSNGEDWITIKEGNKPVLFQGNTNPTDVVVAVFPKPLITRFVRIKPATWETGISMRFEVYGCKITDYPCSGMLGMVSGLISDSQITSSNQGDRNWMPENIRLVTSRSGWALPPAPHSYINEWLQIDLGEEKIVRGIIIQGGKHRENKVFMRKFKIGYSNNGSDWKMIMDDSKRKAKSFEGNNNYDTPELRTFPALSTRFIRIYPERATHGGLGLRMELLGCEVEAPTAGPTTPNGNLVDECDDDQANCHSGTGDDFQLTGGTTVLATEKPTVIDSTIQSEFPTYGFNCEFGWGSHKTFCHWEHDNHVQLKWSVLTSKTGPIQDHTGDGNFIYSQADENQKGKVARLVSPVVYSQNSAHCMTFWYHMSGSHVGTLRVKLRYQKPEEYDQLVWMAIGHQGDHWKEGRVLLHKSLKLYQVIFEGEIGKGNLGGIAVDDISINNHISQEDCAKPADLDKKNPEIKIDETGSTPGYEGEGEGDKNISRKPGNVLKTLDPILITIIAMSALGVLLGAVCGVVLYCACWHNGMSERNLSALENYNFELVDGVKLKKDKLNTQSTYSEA
Method: as §1, §2, §3, §4

[3] = biological target: T3, VEGFR-2 (Homo sapiens, UniProt P35968); format: binding
T3 construct: In the COS-1 cells overexpressing the full-length VEGFR-2; expressed in transfected cells; host or cells: COS-1
T3 sequence (P35968 20-1356): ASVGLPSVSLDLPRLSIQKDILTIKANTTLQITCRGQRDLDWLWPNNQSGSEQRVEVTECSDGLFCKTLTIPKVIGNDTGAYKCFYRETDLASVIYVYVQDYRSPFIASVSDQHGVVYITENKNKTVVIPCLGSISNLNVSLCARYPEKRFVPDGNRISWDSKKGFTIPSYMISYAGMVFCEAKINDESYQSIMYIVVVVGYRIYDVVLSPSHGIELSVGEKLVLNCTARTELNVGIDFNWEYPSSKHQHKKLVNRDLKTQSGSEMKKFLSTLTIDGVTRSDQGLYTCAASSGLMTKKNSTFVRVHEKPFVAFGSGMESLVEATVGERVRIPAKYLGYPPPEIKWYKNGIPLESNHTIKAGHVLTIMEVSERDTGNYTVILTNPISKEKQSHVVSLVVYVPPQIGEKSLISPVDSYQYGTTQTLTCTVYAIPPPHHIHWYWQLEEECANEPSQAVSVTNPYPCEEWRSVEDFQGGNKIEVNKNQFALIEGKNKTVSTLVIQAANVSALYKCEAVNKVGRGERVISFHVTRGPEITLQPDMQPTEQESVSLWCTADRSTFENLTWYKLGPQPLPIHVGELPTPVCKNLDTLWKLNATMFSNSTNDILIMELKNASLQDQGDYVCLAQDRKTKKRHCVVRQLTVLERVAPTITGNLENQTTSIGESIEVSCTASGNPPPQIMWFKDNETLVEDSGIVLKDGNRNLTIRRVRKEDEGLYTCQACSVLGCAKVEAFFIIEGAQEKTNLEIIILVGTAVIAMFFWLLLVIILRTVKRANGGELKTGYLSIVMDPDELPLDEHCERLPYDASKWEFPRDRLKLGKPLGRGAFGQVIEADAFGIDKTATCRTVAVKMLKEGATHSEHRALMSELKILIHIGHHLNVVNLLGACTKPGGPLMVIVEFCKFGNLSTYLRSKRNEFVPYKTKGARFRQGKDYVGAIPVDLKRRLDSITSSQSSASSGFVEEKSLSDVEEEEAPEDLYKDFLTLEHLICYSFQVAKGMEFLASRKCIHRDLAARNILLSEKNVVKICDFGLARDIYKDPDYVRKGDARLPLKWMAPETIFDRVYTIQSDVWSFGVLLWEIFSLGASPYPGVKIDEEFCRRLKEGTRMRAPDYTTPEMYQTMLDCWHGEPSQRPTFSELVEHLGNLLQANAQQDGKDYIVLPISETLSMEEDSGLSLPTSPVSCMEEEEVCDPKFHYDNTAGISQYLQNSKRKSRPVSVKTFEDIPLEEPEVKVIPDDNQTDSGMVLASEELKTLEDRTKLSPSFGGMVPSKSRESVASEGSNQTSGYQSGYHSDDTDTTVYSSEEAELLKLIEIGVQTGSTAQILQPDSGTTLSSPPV
Method: as §1, §2
Cells are plated the day before experimentation at 200,000 cells per well in twelve well tissue culture plates (VWR) in 1 ml of growth medium specific for each cell type. […]
(§5) Unbound ligand is then removed by quickly washing three times with 5 ml ice cold BSA-free binding buffer (MEM, Gibco, 25 mM Hepes, Gibco). Cells are lysed by the addition of 250 μl of RIPS Buffer (previously described), and the lysed cells are transferred to 12×75 mm test tubes and counted using a gamma counter. […]

[4] = biological target: T2, NP-1; assay: Whole cell binding assay: competition for 125I-VEGF165 in stable Balb/C 3T3 A31 cells overexpressing NP-1; conditions: for IC50: Balb/C 3T3 A31 cells, competition for 125I-VEGF165; for Relative affinity (IC50 peptide / IC50 VEGF165), NP-1: Stable Balb/c cells
Method: (§6) Balb/C 3T3 A31 VEGFR-2, NP-1, and VEGFR-2/NP1 stable cells are created using the Nolan Lab Phoenix Retroviral system, previously described.
(§7) Virus containing the hNP-1 gene is generated according to the procedure outlined previously using the QMXE cells.
(§8) Clonal cell lines are obtained by subjecting the NP-1 infected cells to neomycin selection using Balb/C growth medium containing 1.5–2.0 mg/ml G418 (Gibco-BRL) for two weeks. Single colonies are obtained and clones are subjected to Western blot analysis to confirm stable expression of NP-1.
as §3, §4

[5] = system: VEGFR-2/NP-1; assay: Whole cell binding assay: competition for 125I-VEGF165 in stable Balb/C 3T3 A31 cells overexpressing VEGFR-2 and NP-1; design: species or system human
Method: as §6, §7, §8, §3, §5

[6] = system: VEGF165 vascular growth response; assay: Mouse corneal pocket model; format: in vivo; design: key to Score #1 (subjective neovascular response score) / Score #2 (subjective neovascular response score) / Score #3 (subjective neovascular response score): subjective neovascular growth score, 0 to 6 scale; conditions: for Score #1 (subjective neovascular response score): grader 1; for Score #1 (subjective neovascular response score) / Score #2 (subjective neovascular response score) / Score #3 (subjective neovascular response score): per animal, scale 0 to 6, pellet P6V8 4 μg and/or VEGF165 300 ng; for Score #2 (subjective neovascular response score): grader 2; for Score #3 (subjective neovascular response score): grader 3
Method: A 0.2 μl aliquot of this solution yielded a 4 μg dose. Human recombinant VEGF165 was purchased from R&D Systems (Minneapolis, Minn.), supplied in a lyophilized, carrier free form and reconstituted in the same water as the above peptide. A 0.2 μl aliquot of this solution yielded a 300 ng dose.
Male albino mice (Crl: CD-I (ICR) BR, VAF) from Charles River (Portage, N.C.), 20–24 grams were used. […] Compound adsorbed pellets were fabricated and implanted as described below. The treated eye was imaged on the day of implantation (day 0) and on days 4 and 7 following surgery. The growth response was subjectively graded on a scale from 0 to 6 by three independent graders blinded from the treatment grouping labels using the 3× printed image.
Polyvinyl alcohol (PVA) matrix material (Rippey, El Dorado Hills, Calif.) was cut into 1 cm×3 cm pieces and placed in a vibratome for sectioning on edge to produce 300 μm thick strips. The strips were individually sterilized by exposure to ethylene oxide. A strip was then cut under a dissecting microscope into approximately 300 μm cubes. The desired concentration of test compound or vehicle was adsorbed, sometimes utilizing a micro dessicant chamber. An HP auto sampler micro-syringe (Hamilton, P/N 7000.5) controlled the exact volume of the agent adsorbed onto the sponge. The sponge was then placed on a microscope slide prepared with a coating (20 μl spread over a 0.75 mm×1.5 mm area) of 12% hydron (Sigma, St. Louis, Mo.). The slide was protected in a clean petri dish and placed into a dessicator at 4° C. for a few hours or overnight. The dry, adsorbed sponges were mechanically flattened and overlaid with another aliquot of 12% hydron and again placed into a dessicator to cure the hydron coating. Fabrication of the adsorbed PVA sponge-hydron sandwich (referred to as a pellet) was done no more than 48 hours prior to implantation and the pellets were stored at 4° C. On the day of surgery and just prior to implantation, the pellet was trimmed so that the sponge remained encased by hydron (approximately 400 μm×400 μm×50 μm) and could be carefully removed from the slide.
Mice were anesthetized with 0.05 cc of Ketamine (140 mg/kg) and 0.03 cc Xylazine (17 mg/kg). A surgical plane of anesthesia was maintained by subsequent administration of half doses of the above compounds as needed. The whiskers on the animal's right side were trimmed down to ¼ of an inch. The right eye was bathed in an ophthalmic local anesthetic solution (Ophthaine, 0.5% tetracine hydrochloride) initially and throughout the procedure. The animal was placed on its side and the skin around the eye was gently retracted to expose the lateral and apical aspects of the cornea. The lateral limbic artery bifurcation was positioned horizontally. While stabilizing the eye against the ocular orbit, a vertical incision was made using a micro scalpel into the corneal tissue just lateral to the pupil. Care was taken to prevent accidental perforation of the anterior eye chamber. The incision depth was carefully deepened until a delicate and small lateral stab could be made (on axis with the lateral limbic artery bifurcation) with the micro scalpel into the middle of the corneal stroma. This lateral, intrastromal incision was enlarged by blunt dissection with very fine forceps until a pocket was formed from the vertical incision toward the limbus.
A hydron coated PVA sponge with adsorbed test compound (pellet) was prepared for implantation by carefully excising and removing it from the microscope slide. The pellet was introduced gently into the corneal pocket and advanced to within 1–2 mm of the limbus. The edges of the vertical corneal incision were approximated to encourage rapid healing. The imaging procedure (described below) was used to document the native limbic vascular architecture at the time of implantation. Post surgical recovery of the animal consisted of triple antibiotic ophthalmic ointment to prevent corneal drying, abrasion and infection. […]

[7] = system: COS-1 cells (Mock); assay: Saturation analysis of 125I-VEGF165 binding, COS-1 Mock; conditions: COS-1 transient
Source text: To perform hNeuropilin-1 (hNP-1) and hVEGFR-2 complex formation and peptide blocking experiments, the hVEGFR-2 and hNP-1 cDNAs are cloned into the pJFE14 mammalian expression plasmid (Regeneron Pharmaceuticals) containing the SRα promoter. COS-1 cells are transiently transfected with pJFE14 (Regeneron Pharmaceuticals), hVEGFR-2 (Regeneron Pharmaceuticals), or hNP-1 (Procter & Gamble Pharmaceuticals) expression plasmids using the Lipofectamine-2000 system (Gibco-BRL). […] When co-expressing VEGFR-2 and NP-1, 5 μg of VEGFR-2 cDNA and 2 μg of NP-1 cDNA are used. When the receptors are expressed in isolation, for VEGFR-2, 5 μg of VEGFR-2 cDNA and 2 μg of mock vector cDNA are used.
Unbound ligand is then removed by quickly washing three times with 5 ml ice cold BSA-free binding buffer (MEM, Gibco, 25 mM Hepes, Gibco). Cells are lysed by the addition of 250 μl of RIPS Buffer (previously described), and the lysed cells are transferred to 12×75 mm test tubes and counted using a gamma counter. Generation of competition curves and IC50 values are performed using the Prism software package (Graphpad Software Inc., San Diego, Calif.). […]
This possibility was evaluated by determining equilibrium binding Kd values in cells expressing VEGFR-2 alone, NP-1 alone, and cells co-expressing both receptors, using standard saturation analysis techniques as known to one skilled in the art.

[8] = system: Balb/c cells (Mock, endogenous NP-1); assay: Saturation analysis of 125I-VEGF165 binding, Balb/c Mock (pGBMGH); conditions: Balb/c stable
Source text: Pools of infected Balb/C 3T3 A31 cells expressing hVEGFR-2 or GFP alone (Mock) are selected two times by FACS sorting using the hVEGFR-2 specific monoclonal antibody J5F4A2 (Procter & Gamble Pharmaceuticals as described in J. Biol. Chem. 276(27):25520–25531 (2001), which is expressly incorporated by reference herein in its entirety, for the VEGFR-2 cells, or by GFP emission for the Mock cells. Clonal populations of VEGFR-2 are generated by subjecting the FACS sorted VEGFR-2 cell pool to limiting dilution. A clonal hVEGFR-2 cell line termed D7R2 is selected for experimental studies based on its high levels of hVEGFR-2 expression by Western blot analysis. The pool of the Mock GFP expressing cells, hereinafter referred to as pGBMGH, is not subjected to limiting dilutions and thus is not a clonal population.
as §5
This possibility was evaluated by determining equilibrium binding Kd values in cells expressing VEGFR-2 alone, NP-1 alone, and cells co-expressing both receptors, using standard saturation analysis techniques as known to one skilled in the art. […]

## H-KGRGKRAAEAQAPSDAPAR-OH [P6V8-3NCSA7,8, 10, 12, 16, 18]
[1]
  Relative Affinity to Lead Peptide (RALP), VEGFR-2/NP-1: 27.540
[2]
  Relative Affinity to Lead Peptide (RALP), NP-1: 72.44

## H-KGRGKRAAEAQRPSDKPRR-OH [P6V8-3NCSA7,8, 10]
[1]
  Relative Affinity to Lead Peptide (RALP), VEGFR-2/NP-1: 3.27
[2]
  Relative Affinity to Lead Peptide (RALP), NP-1: 14.25

## H-RRPAAAGKRRREKQRPSDKPRR-OH [AS-1, RRP AAA GKR RRE KQR PSD KPR R]
[1]
  Relative Affinity to Lead Peptide (RALP), VEGFR-2/NP-1: 1
[2]
  Relative Affinity to Lead Peptide (RALP), NP-1: 8

## H-RRPKGRGKRAAAKQRPSDKPRR-OH [AS-3, RRP KGR GKR AAA KQR PSD KPR R]
[1]; AS series, lead peptide P6V8CS, COS-1, NC = no competition
  Relative Affinity to Lead Peptide (RALP), VEGFR-2/NP-1: complete loss of binding
[2]
  Relative Affinity to Lead Peptide (RALP), NP-1: 0.55
[3]
  Relative Affinity to Lead Peptide (RALP), VEGFR-2: 4

## H-RRPKGRGKRRREKQRAAAKPRR-OH [AS-4A]
[1]
  Relative Affinity to Lead Peptide (RALP), VEGFR-2/NP-1: 0.78
[2]
  Relative Affinity to Lead Peptide (RALP), NP-1: 2.1
[3]
  Relative Affinity to Lead Peptide (RALP), VEGFR-2: 1.9

## H-RRPKGRGKRRREKQRPSDAAAR-OH [AS-5]
[1]
  Relative Affinity to Lead Peptide (RALP), VEGFR-2/NP-1: 0.71
[2]
  Relative Affinity to Lead Peptide (RALP), NP-1: 1.6

## KGRGKRRREKQRPCDKPRR [Peptide P6V8-3N, KGR GKR RRE KQR P CDK PRR]
[4]
  IC50: 254 nM
  Relative affinity (IC50 peptide / IC50 VEGF165), NP-1: 1,607
[5]
  Relative affinity (IC50 peptide / IC50 VEGF165), VEGFR-2/NP-1: 6,928

## RRPKGRGKRRREAAAPSDKPRR [AS-4]
[1]
  Relative Affinity to Lead Peptide (RALP), VEGFR-2/NP-1: 4.2
[4]
  IC50: 17.8 nM
  Relative affinity (IC50 peptide / IC50 VEGF165), NP-1: 112
[2]
  Relative Affinity to Lead Peptide (RALP), NP-1: 0.45
[2]; COS-1
  selectivity for cells expressing NP-1 alone versus cells co-expressing VEGFR-2 and NP-1: about 100 fold
[5]
  Relative affinity (IC50 peptide / IC50 VEGF165), VEGFR-2/NP-1: 3,856

## RRPKGRGKRRREKQRPCDKPRR [Peptide P6V8, RRP KGR GKR RRE KQR P CDKPRR]
[6]; Day 7, P6V8 alone 4 μg, 0 = no change in limbic vasculature from Day 0
  score of eye images by all graders: 0
[6]; P6V8 4 μg, mouse corneal micro pocket
  vascular growth response to 300 ng of VEGF165 in the presence of peptide: attenuated
[6]
  Score #1 (subjective neovascular response score): 0
  Score #2 (subjective neovascular response score): 0
  Score #3 (subjective neovascular response score): 0

## VEGF165: human recombinant VEGF165 (R&D Systems), vascular endothelial growth factor isoform 165
[7]
  Kd: 1.11 nM
  Log Kd ± SEM: −8.95 ± 0.31
[8]
  Kd: 0.222 nM
  Log Kd ± SEM: −9.65 ± 0.13
[6]
  Score #1 (subjective neovascular response score): 2 (2×) and 3 (3×) and 4 (2×) and 5
  Score #2 (subjective neovascular response score): 2 (3×) and 4 (4×) and 5
  Score #3 (subjective neovascular response score): 2 (3×) and 3 (2×) and 4 and 5 (2×)
